In US20240018161A1, “MODULATORS OF CYSTIC FIBROSIS TRANSMEMBRANE CONDUCTANCE REGULATOR” (VERTEX PHARMACEUTICALS INCORPORATED, priority 2020, published 2024):

Target: T1, CFTR-mediated short-circuit current in F508del/MF-HBE cells (Homo sapiens, UniProt P13569, DEL508-508)
T1 construct: human bronchial epithelial (HBE) cells derived from CF subjects; endogenous in cells; host or cells: primary human bronchial epithelial cells from CF subjects (F508del/MF-HBE)
Assay: HBE2 assay: Ussing chamber assay of CFTR-mediated short-circuit currents
Format: cell-based
Protocol: 1. Ussing Chamber Assay of CFTR-Mediated Short-Circuit Currents
Ussing chamber experiments were performed using human bronchial epithelial (HBE) cells derived from CF subjects heterozygous for F508del and a minimal function CFTR mutation (F508del/MF-HBE) and cultured as previously described (Neuberger T, Burton B, Clark H, Van Goor F Methods Mol Biol 2011:741:39-54). After four days the apical media was removed, and the cells were grown at an air liquid interface for >14 days prior to use.
To isolate the CFTR-mediated short-circuit (ISC) current, F508del/MF-HBE grown on Costar® Snapwell™ cell culture inserts were mounted in an Ussing chamber and the transepithelial ISC was measured under voltage-clamp recording conditions (Vhold=0 mV) at 37° C. The basolateral solution contained (in mM) 145 NaCl, 0.83 K2HPO4, 3.3 KH2PO4, 1.2 MgCl2, 1.2 CaCl2, 10 Glucose, 10 HEPES (pH adjusted to 7.4 with NaOH) and the apical solution contained (in mM) 145 NaGluconate, 1.2 MgCl2, 1.2 CaCl2, 10 glucose, 10 HEPES (pH adjusted to 7.4 with NaOH) and 30 μM amiloride to block the epithelial sodium channel. Forskolin (20 μM) was added to the apical surface to activate CFTR, followed by apical addition of a CFTR inhibitor cocktail consisting of BPO, GlyH-101, and CFTR inhibitor 172 (each at 20 μM final assay concentration) to specifically isolate CFTR currents. The CFTR-mediated ISC (μA/cm^2) for each condition was determined from the peak forskolin response to the steady-state current following inhibition.
2. Identification of Corrector Compounds
The activity of the CFTR corrector compounds on the CFTR-mediated ISC was determined in Ussing chamber studies as described above. The F508del/MF-HBE cell cultures were either incubated with the corrector compounds at a range of concentrations in combination with 44 nM (6R,12R)-17-amino-12-methyl-6,15-bis(trifluoromethyl)-13,19-dioxa-3,4,18-triazatricyclo[12.3.1.12,5]nonadeca-1(18),2,4,14,16-pentaen-6-ol or were incubated with the corrector compounds at a single fixed concentration of 1 and 3 μM in combination with 44 nM (6R,12R)-17-amino-12-methyl-6,15-bis(trifluoromethyl)-13,19-dioxa-3,4,18-triazatricyclo[12.3.1.12,5]nonadeca-1(18),2,4,14,16-pentaen-6-ol for 18-24 hours at 37° C. and in the presence of […]. The concentration of corrector compounds with 44 nM (6R,12R)-17-amino-12-methyl-6,15-bis(trifluoromethyl)-13,19-dioxa-3,4,18-triazatricyclo[12.3.1.12,5]nonadeca-1(18),2,4,14,16-pentaen-6-ol during the 18-24 hours incubations was kept constant throughout the Ussing chamber measurement of the CFTR-mediated ISC to ensure compounds were present throughout the entire experiment.

T1 sequence (P13569 with tags, fused parts or gaps DEL508-508): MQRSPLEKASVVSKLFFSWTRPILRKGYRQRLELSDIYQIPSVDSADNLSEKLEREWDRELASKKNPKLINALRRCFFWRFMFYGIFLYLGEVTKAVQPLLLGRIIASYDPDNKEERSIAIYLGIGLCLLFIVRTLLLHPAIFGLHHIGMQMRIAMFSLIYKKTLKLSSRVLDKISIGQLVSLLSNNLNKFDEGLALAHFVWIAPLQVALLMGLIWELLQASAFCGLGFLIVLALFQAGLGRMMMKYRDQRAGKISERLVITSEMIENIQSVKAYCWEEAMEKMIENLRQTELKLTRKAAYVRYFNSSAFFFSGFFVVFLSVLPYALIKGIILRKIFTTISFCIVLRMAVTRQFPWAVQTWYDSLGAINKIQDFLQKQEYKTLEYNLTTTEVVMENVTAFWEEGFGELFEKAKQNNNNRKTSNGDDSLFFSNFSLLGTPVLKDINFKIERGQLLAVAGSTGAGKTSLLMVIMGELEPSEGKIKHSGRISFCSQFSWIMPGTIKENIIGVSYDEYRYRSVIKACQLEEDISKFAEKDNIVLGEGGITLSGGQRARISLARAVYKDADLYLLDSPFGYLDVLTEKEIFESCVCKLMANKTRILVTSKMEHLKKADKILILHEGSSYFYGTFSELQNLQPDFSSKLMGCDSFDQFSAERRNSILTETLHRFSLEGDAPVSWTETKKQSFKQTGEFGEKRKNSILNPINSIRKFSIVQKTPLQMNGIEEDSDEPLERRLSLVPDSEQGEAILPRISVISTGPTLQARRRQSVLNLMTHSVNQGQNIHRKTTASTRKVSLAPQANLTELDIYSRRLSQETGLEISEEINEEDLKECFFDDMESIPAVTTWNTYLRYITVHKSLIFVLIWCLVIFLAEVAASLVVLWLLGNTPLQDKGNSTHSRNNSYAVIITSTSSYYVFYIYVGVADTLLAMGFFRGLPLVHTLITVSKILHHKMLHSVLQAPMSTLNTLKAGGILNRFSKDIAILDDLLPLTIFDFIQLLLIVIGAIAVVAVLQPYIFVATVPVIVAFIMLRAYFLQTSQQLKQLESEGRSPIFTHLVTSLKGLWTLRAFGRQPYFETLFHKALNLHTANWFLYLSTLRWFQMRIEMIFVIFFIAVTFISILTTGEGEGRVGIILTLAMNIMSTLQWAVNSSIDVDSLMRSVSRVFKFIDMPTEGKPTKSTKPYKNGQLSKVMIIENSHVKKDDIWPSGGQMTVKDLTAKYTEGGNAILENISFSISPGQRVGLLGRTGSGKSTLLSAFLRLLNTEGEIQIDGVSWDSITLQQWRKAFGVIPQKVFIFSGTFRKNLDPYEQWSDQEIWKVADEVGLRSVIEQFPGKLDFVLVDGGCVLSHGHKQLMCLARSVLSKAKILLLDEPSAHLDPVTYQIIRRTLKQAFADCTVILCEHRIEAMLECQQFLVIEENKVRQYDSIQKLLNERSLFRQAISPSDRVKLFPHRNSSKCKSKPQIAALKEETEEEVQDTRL

SMILES | HBE2 Activity at 3 μM (%)
Cc1cccc(C)c1-c1cc2nc(n1)NS(=O)(=O)c1cccc(c1)C(=O)N1[C@@H](c3ncc(OC(C)C)cn3)CCC(C)(C)[C@H]1CO2 (single isomer, unassigned) [Compound 386, 13-(2,6-dimethylphenyl)-4-(5-isopropoxypyrimidin-2-yl)-7,7-dimethyl-17,17-dioxo-10-oxa-17λ^6-thia-3,14,16,23-tetrazatetracyclo[16.3.1.111,15.03,8]tricosa-1(21),11,13,15(23),18(22),19-hexaen-2-one] | + (+ is <30+)
Cc1cccc(C)c1-c1cc2nc(n1)NS(=O)(=O)c1cccc(c1)C(=O)N1[C@@H](c3ncc(OC(C)C)cn3)CCC[C@@H](CC(C)C)[C@H]1CO2 (single isomer, unassigned) [Compound 395, 14-(2,6-dimethylphenyl)-8-isobutyl-4-(5-isopropoxypyrimidin-2-yl)-18,18-dioxo-11-oxa-18λ^6-thia-3,15,17,24-tetrazatetracyclo[17.3.1.112,16.03,9]tetracosa-1(22),12,14,16(24),19(23),20-hexaen-2-one] | ++ (++ is 30-60%)
Cc1cccc(C)c1-c1cc2nc(n1)NS(=O)(=O)c1cccc(c1)C(=O)N1[C@@H](c3ncc(OC(C)C)cn3)CCC[C@@H](CC(C)C)[C@H]1CO2 (single isomer, unassigned) [Compound 396, 14-(2,6-Dimethylphenyl)-8-isobutyl-4-(5-isopropoxypyrimidin-2-yl)-18,18-dioxo-11-oxa-18λ^6-thia-3,15,17,24-tetrazatetracyclo[17.3.1.112,16.03,9]tetracosa-1(22),12,14,16(24),19(23),20-hexaen-2-one] | + (+ is <30+)
Cc1cccc(C)c1-c1cc2nc(n1)NS(=O)(=O)c1cccc(c1)C(=O)N1[C@@H](c3ncc(OC(C)C)cn3)CCC[C@@H](CC(C)C)[C@H]1CO2 (single isomer, unassigned) [Compound 398, 14-(2,6-Dimethylphenyl)-8-isobutyl-4-(5-isopropoxypyrimidin-2-yl)-18,18-dioxo-11-oxa-18λ^6-thia-3,15,17,24-tetrazatetracyclo[17.3.1.112,16.03,9]tetracosa-1(22),12,14,16(24),19(23),20-hexaen-2-one] | +++ (+++ is >60%)
Cc1cccc(C)c1-c1cc2nc(n1)NS(=O)(=O)c1cccc(c1)C(=O)N1[C@@H](c3cncc(N(C)C4CCC4)n3)CCC[C@@H](CC(C)C)[C@H]1CO2 (single isomer, unassigned) [Compound 400, 4-[6-[Cyclobutyl(methyl)amino]pyrazin-2-yl]-14-(2,6-dimethylphenyl)-8-isobutyl-18,18-dioxo-11-oxa-18λ^6-thia-3,15,17,24-tetrazatetracyclo[17.3.1.112,16.03,9]tetracosa-1(22),12,14,16(24),19(23),20-hexaen-2-one] | +++ (+++ is >60%)
Cc1cccc(C)c1-c1cc2nc(n1)NS(=O)(=O)c1cccc(c1)C(=O)N1[C@@H](c3ncc(OC(C)C)cn3)CCC[C@@H](O2)[C@H]1CC(C)C (single isomer, unassigned) [Compound 405, 12-(2,6-Dimethylphenyl)-21-isobutyl-20-(5-isopropoxypyrimidin-2-yl)-8,8-dioxo-15-oxa-8λ^6-thia-1,9,11,22-tetrazatetracyclo[14.4.1.13,7.110,14]tricosa-3,5,7(23),10(22),11,13-hexaen-2-one] | +++ (+++ is >60%)
Cc1cccc(C)c1-c1cc2nc(n1)NS(=O)(=O)c1cccc(c1)C(=O)N1[C@@H](c3ncc(OC(C)C)cn3)CCC[C@@H](O2)[C@H]1CC(C)C (single isomer, unassigned) [Compound 406, 12-(2,6-Dimethylphenyl)-21-isobutyl-20-(5-isopropoxypyrimidin-2-yl)-8,8-dioxo-15-oxa-8λ^6-thia-1,9,11,22-tetrazatetracyclo[14.4.1.13,7.110,14]tricosa-3,5,7(23),10(22),11,13-hexaen-2-one] | +++ (+++ is >60%)

The remaining lines, values ahead:

HBE2 Activity at 3 μM (%) | SMILES
+++ (+++ is >60%) | Cc1cccc(C)c1-c1cc2nc(n1)NS(=O)(=O)c1cccc(c1)C(=O)N1[C@@H](c3ncc(OC(C)C)cn3)CCC(C)(C)[C@H]1CO2 (single isomer, unassigned) [Compound 387, 13-(2,6-Dimethylphenyl)-4-(5-isopropoxypyrimidin-2-yl)-7,7-dimethyl-17,17-dioxo-10-oxa-17λ^6-thia-3,14,16,23-tetrazatetracyclo[16.3.1.111,15.03,8]tricosa-1(21),11,13,15(23),18(22),19-hexaen-2-one]
+++ (+++ is >60%) | Cc1cccc(C)c1-c1cc2nc(n1)NS(=O)(=O)c1cccc(c1)C(=O)N1[C@@H](c3ncc(OC(C)C)cn3)CCC[C@@H](CC(C)C)[C@H]1CO2 (single isomer, unassigned) [Compound 394, 14-(2,6-Dimethylphenyl)-8-isobutyl-4-(5-isopropoxypyrimidin-2-yl)-18,18-dioxo-11-oxa-18λ^6-thia-3,15,17,24-tetrazatetracyclo[17.3.1.112,16.03,9]tetracosa-1(22),12,14,16(24),19(23),20-hexaen-2-one]
+++ (+++ is >60%) | Cc1cccc(C)c1-c1cc2nc(n1)NS(=O)(=O)c1cccc(c1)C(=O)N1[C@@H](c3ncc(OC(C)C)cn3)CCC[C@@H](CC(C)C)[C@H]1CO2 (single isomer, unassigned) [Compound 397, 14-(2,6-dimethylphenyl)-8-isobutyl-4-(5-isopropoxypyrimidin-2-yl)-18,18-dioxo-11-oxa-18λ^6-thia-3,15,17,24-tetrazatetracyclo[17.3.1.112,16.03,9]tetracosa-1(22),12,14,16(24),19(23),20-hexaen-2-one]
+ (+ is <30+) | Cc1cccc(C)c1-c1cc2nc(n1)NS(=O)(=O)c1cccc(c1)C(=O)N1[C@@H](c3ncc(OC(C)C)cn3)CCC[C@@H](CC(C)C)[C@H]1CO2 (single isomer, unassigned) [Compound 399, 14-(2,6-dimethylphenyl)-8-isobutyl-4-(5-isopropoxypyrimidin-2-yl)-18,18-dioxo-11-oxa-18λ^6-thia-3,15,17,24-tetrazatetracyclo[17.3.1.112,16.03,9]tetracosa-1(22),12,14,16(24),19(23),20-hexaen-2-one]
++ (++ is 30-60%) | Cc1cccc(C)c1-c1cc2nc(n1)NS(=O)(=O)c1cccc(c1)C(=O)N1[C@@H](c3cncc(N(C)C4CCC4)n3)CCC[C@@H](CC(C)C)[C@H]1CO2 (single isomer, unassigned) [Compound 401, 4-[6-[cyclobutyl(methyl)amino]pyrazin-2-yl]-14-(2,6-dimethylphenyl)-8-isobutyl-18,18-dioxo-11-oxa-18λ^6-thia-3,15,17,24-tetrazatetracyclo[17.3.1.112,16.03,9]tetracosa-1(22),12,14,16(24),19(23),20-hexaen-2-one]
+++ (+++ is >60%) | Cc1cccc(C)c1-c1cc2nc(n1)NS(=O)(=O)c1cccc(c1)C(=O)N1[C@@H](c3cncc(N(C)C4CCC4)n3)CCC[C@@H](CC(C)C)[C@H]1CO2 (single isomer, unassigned) [Compound 402, 4-[6-[Cyclobutyl(methyl)amino]pyrazin-2-yl]-14-(2,6-dimethylphenyl)-8-isobutyl-18,18-dioxo-11-oxa-18λ^6-thia-3,15,17,24-tetrazatetracyclo[17.3.1.112,16.03,9]tetracosa-1(22),12,14,16(24),19(23),20-hexaen-2-one]
++ (++ is 30-60%) | Cc1cccc(C)c1-c1cc2nc(n1)NS(=O)(=O)c1cccc(c1)C(=O)N1[C@@H](c3ncc(OC(C)C)cn3)CCC[C@@H](O2)[C@H]1CC(C)C (single isomer, unassigned) [Compound 404, 12-(2,6-dimethylphenyl)-21-isobutyl-20-(5-isopropoxypyrimidin-2-yl)-8,8-dioxo-15-oxa-8λ^6-thia-1,9,11,22-tetrazatetracyclo[14.4.1.13,7.110,14]tricosa-3,5,7(23),10(22),11,13-hexaen-2-one]
